pIC50: −log10 of the molar value.
Experiments:
Test in all cases: cells
Parameters in all cases: CellTiter-Glo 2.0 luminescence proliferation/viability assay, single agents, human tumour cell line panel
SNU1411 = conditions: 96 h; single agent; read-out: IC50 SMACm
Summary of the method: (§1)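 Human tumour cell lines were seeded into assay plates and held at 37°C with 5% CO2 for twenty-four hours, then exposed in triplicate to rising concentrations of the SMAC mimetic, from 4.5 nM to 10 μM, with DMSO as control. After 96 h, viability was read as CellTiter-Glo2.0 luminescence to derive single-agent IC50 values.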

NCI-H1373 = conditions: Homo sapiens, NCI-H1373, 96 h; single agent; read-out: IC50 SMACm
Summary of the method: as §1

RCM-1 = conditions: Homo sapiens, RCM-1, 96 h; single agent; read-out: IC50 SMACm
Summary of the method: as §1

NCI-H520 = conditions: Homo sapiens, NCI-H520, 96 h; single agent; read-out: IC50 SMACm
Summary of the method: as §1

SUIT-2 = conditions: SUIT-2, 96 h; single agent; read-out: IC50 SMACm
Summary of the method: as §1

SNU503 = conditions: 96 h; single agent; read-out: IC50 SMACm
Summary of the method: as §1

HCC1833 = conditions: 96 h; single agent; read-out: IC50 SMACm
Summary of the method: as §1

Calu-1 = conditions: Homo sapiens, Calu-1, 96 h; single agent; read-out: IC50 SMACm
Summary of the method: as §1

NCI-SNU-1 = conditions: 96 h; single agent; read-out: IC50 SMACm
Summary of the method: as §1

LS-411N = conditions: Homo sapiens, LS-411N, 96 h; single agent; read-out: IC50 SMACm
Summary of the method: as §1

C125PM = conditions: 96 h; single agent; read-out: IC50 SMACm
Summary of the method: as §1

DLD-1 = conditions: Homo sapiens, DLD-1, 96 h; single agent; read-out: IC50 SMACm
Summary of the method: as §1

C106 = conditions: 96 h; single agent; read-out: IC50 SMACm
Summary of the method: as §1

CFPAC-1 = conditions: Homo sapiens, CFPAC-1, 96 h; single agent; read-out: IC50 SMACm
Summary of the method: as §1

SNU-324 = conditions: 96 h; single agent; read-out: IC50 SMACm
Summary of the method: as §1

HLC-1 = conditions: 96 h; single agent; read-out: IC50 SMACm
Summary of the method: as §1

pIC50 (SNU1411): 5.31
pIC50 (NCI-H1373): < 5.00
pIC50 (NCI-H520): 5.40
pIC50 (SNU503): 5.28
pIC50 (HCC1833): 6.99
pIC50 (Calu-1): 5.08
pIC50 (NCI-SNU-1): 5.21
pIC50 (DLD-1): 5.29
pIC50 (SNU-324): 5.33
Compound: CN[C@@H](C)C(=O)Nc1ccc(-c2c(-c3cccnc3OC)nc3cc(C)ccn23)c(C#Cc2ccc3c(C)nccc3c2)n1 [SMACm, BI 891065]
pIC50 (RCM-1): 5.24
pIC50 (SUIT-2): 5.32
pIC50 (LS-411N): 5.35
pIC50 (C125PM): 5.90
pIC50 (C106): 5.79
pIC50 (CFPAC-1): 5.70
pIC50 (HLC-1): 5.23

— publication PMC12490239, “Combining BET inhibition with SMAC mimetics restricts tumor growth and triggers immune surveillance in preclinical cancer models” (Cell Reports Medicine, 2025)
